target: recombinant Mcl-1 (residues 172-327) (Homo sapiens (Human), UniProt Q07820); assay: Fluorescence polarization anisotropy competition assay (FITC-Bak or FITC-Bim BH3 peptide) with Mcl-1; format: binding; settings: Table 2; Ki bins given in nM; FITC-Bak or FITC-Bim peptide competition; Ki converted from IC50; read-out: Ki for Inhibition of Mcl-1
Sequence (Q07820 172-327): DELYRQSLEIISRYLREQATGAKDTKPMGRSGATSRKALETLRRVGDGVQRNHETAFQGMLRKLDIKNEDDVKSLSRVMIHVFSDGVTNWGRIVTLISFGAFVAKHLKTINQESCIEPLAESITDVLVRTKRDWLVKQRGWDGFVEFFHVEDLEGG

| Ki | SMILES |
| --- | --- |
| < 50 nM | Cc1cc(OCCCc2c(C(=O)Nc3cc(C(=O)O)cc(N4CCOCC4)c3)[nH]c3c(-c4c(C)nn(C)c4C)c(Cl)ccc23)cc(C)c1Cl [I-208, 3-(6-chloro-3-(3-(4-chloro-3,5-dimethylphenoxy)propyl)-7-(1,3,5-trimethyl-1H-pyrazol-4-yl)-1H-indole-2-carboxamido)-5-morpholinobenzoic acid] |
| < 50 nM | Cc1cc(OCCCc2c3n(c4c(-c5c(C)nn(C)c5C)c(Cl)ccc24)C[C@@H](C)N(c2cc(C(=O)O)c4ccn(C)c4c2)C3=O)cc(C)c1Cl [I-160, (R)-6-(7-chloro-10-(3-(4-chloro-3,5-dimethylphenoxy)propyl)-3-methyl-1-oxo-6-(1,3,5-trimethyl-1H-pyrazol-4-yl)-3,4-dihydropyrazino[1,2-a]indol-2(1H)-yl)-1-methyl-1H-indole-4-carboxylic acid] |
| < 50 nM | Cc1cc(OCCCc2c(C(=O)N[C@H]3CC[C@@H](C(=O)O)C3)[nH]c3c(-c4c(C)nn(C)c4C)c(Cl)ccc23)cc(C)c1Cl [I-330, (1R,3S)-3-(6-chloro-3-(3-(4-chloro-3,5-dimethylphenoxy)propyl)-7-(1,3,5-trimethyl-1H-pyrazol-4-yl)-1H-indole-2-carboxamido)cyclopentane-1-carboxylic acid] |
| < 50 nM | Cc1cc(OCCCc2c3n(c4c(-c5c(C)nn(C)c5C)c(Cl)ccc24)CCCN(c2cc(C(=O)O)c4cc[nH]c4c2)C3=O)cc(C)c1Cl [I-253, 6-(8-chloro-11-(3-(4-chloro-3,5-dimethylphenoxy)propyl)-1-oxo-7-(1,3,5-trimethyl-1H-pyrazol-4-yl)-4,5-dihydro-1H-[1,4]diazepino[1,2-a]indol-2(3H)-yl)-1H-indole-4-carboxylic acid] |
| < 50 nM | Cc1cc(OCCCc2c3n(c4c(-c5c(C)nn(C)c5C)c(Cl)ccc24)CCCN(c2cc(C(=O)O)cc(-c4ccncc4)c2)C3=O)cc(C)c1Cl [I-231, 3-(8-chloro-11-(3-(4-chloro-3,5-dimethylphenoxy)propyl)-1-oxo-7-(1,3,5-trimethyl-1H-pyrazol-4-yl)-4,5-dihydro-1H-[1,4]diazepino[1,2-a]indol-2(3H)-yl)-5-(pyridin-4-yl)benzoic acid] |
| < 50 nM | Cc1cc(OCCCc2c3n(c4c(-c5c(C)nn(C)c5C)c(Cl)ccc24)CCCN(c2cc(C(=O)O)cc(N(C)C)c2)C3=O)cc(C)c1Cl [I-216, 3-(8-chloro-11-(3-(4-chloro-3,5-dimethylphenoxy)propyl)-1-oxo-7-(1,3,5-trimethyl-1H-pyrazol-4-yl)-4,5-dihydro-1H-[1,4]diazepino[1,2-a]indol-2(3H)-yl)-5-(dimethylamino)benzoic acid] |
| < 50 nM | Cc1cc(OCCCc2c3n(c4c(-c5c(C)nn(C)c5C)c(Cl)ccc24)CCCN(c2cc(C(=O)O)cc4c2ccn4Cc2cccnc2)C3=O)cc(C)c1Cl [I-242, 4-(8-chloro-11-(3-(4-chloro-3,5-dimethylphenoxy)propyl)-1-oxo-7-(1,3,5-trimethyl-1H-pyrazol-4-yl)-4,5-dihydro-1H-[1,4]diazepino[1,2-a]indol-2(3H)-yl)-1-(pyridin-3-ylmethyl)-1H-indole-6-carboxylic acid] |

Continued, compound first:

| SMILES | Ki |
| --- | --- |
| Cc1cc(OCCCc2c3n(c4c(-c5c(C)nn(C)c5C)c(Cl)ccc24)[C@@H](C)CN(Cc2ccc(C(=O)O)cc2)C3=O)cc(C)c1Cl [I-150, (S)-4-((7-chloro-10-(3-(4-chloro-3,5-dimethylphenoxy)propyl)-4-methyl-1-oxo-6-(1,3,5-trimethyl-1H-pyrazol-4-yl)-3,4-dihydropyrazino[1,2-a]indol-2(1H)-yl)methyl)benzoic acid] | < 50 nM |
| Cc1cc(OCCCc2c3n(c4c(-c5c(C)nn(C)c5C)c(Cl)ccc24)C(C)[C@@H](C)N(Cc2ccc(C(=O)O)o2)C3=O)cc(C)c1Cl (stereo partly drawn) [I-147, 5-(((3R)-7-chloro-10-(3-(4-chloro-3,5-dimethylphenoxy)propyl)-3,4-dimethyl-1-oxo-6-(1,3,5-trimethyl-1H-pyrazol-4-yl)-3,4-dihydropyrazino[1,2-a]indol-2(1H)-yl)methyl)furan-2-carboxylic acid] | < 50 nM |
| Cc1cc(OCCCc2c3n(c4c(-c5c(C)nn(C)c5C)c(Cl)ccc24)C(C)CN(Cc2ccc(C(=O)O)o2)C3=O)cc(C)c1Cl (stereo not drawn) [I-128, 5-((7-chloro-10-(3-(4-chloro-3,5-dimethylphenoxy)propyl)-4-methyl-1-oxo-6-(1,3,5-trimethyl-1H-pyrazol-4-yl)-3,4-dihydropyrazino[1,2-a]indol-2(1H)-yl)methyl)furan-2-carboxylic acid] | < 50 nM |
| Cc1cc(OCCCc2c3n(c4c(-c5c(C)nn(C)c5C)c(Cl)ccc24)C[C@@H](C)N(Cc2ccc(C(=O)O)cn2)C3=O)cc(C)c1Cl [I-122, (R)-6-((7-chloro-10-(3-(4-chloro-3,5-dimethylphenoxy)propyl)-3-methyl-1-oxo-6-(1,3,5-trimethyl-1H-pyrazol-4-yl)-3,4-dihydropyrazino[1,2-a]indol-2(1H)-yl)methyl)nicotinic acid] | < 50 nM |
| Cc1cc(OCCCc2c3n(c4c(-c5c(C)nn(C)c5C)c(Cl)ccc24)CCCN(Cc2cc(C(=O)O)cc(N(C(=O)CC(C)C)C(=O)CC(C)C)c2)C3=O)cc(C)c1Cl [I-329, 3-((8-chloro-11-(3-(4-chloro-3,5-dimethylphenoxy)propyl)-1-oxo-7-(1,3,5-trimethyl-1H-pyrazol-4-yl)-4,5-dihydro-1H-[1,4]diazepino[1,2-a]indol-2(3H)-yl)methyl)-5-(3-methyl-N-(3-methylbutanoyl)butanamido)benzoic acid] | < 50 nM |
| Cc1cc(OCCCc2c3n(c4c(-c5c(C)nn(C)c5C)c(Cl)ccc24)CCCN(c2ccnc4c(C(=O)O)cccc24)C3=O)cc(C)c1Cl [I-104, 4-(8-chloro-11-(3-(4-chloro-3,5-dimethylphenoxy)propyl)-1-oxo-7-(1,3,5-trimethyl-1H-pyrazol-4-yl)-4,5-dihydro-1H-[1,4]diazepino[1,2-a]indol-2(3H)-yl)quinoline-8-carboxylic acid] | < 50 nM |
| Cc1cc(OCCCc2c(C(=O)Nc3ccc(C(=O)O)cc3)[nH]c3c(-c4cccnc4C)cccc23)cc(C)c1Cl [I-37, 4-(3-(3-(4-chloro-3,5-dimethylphenoxy)propyl)-7-(2-methylpyridin-3-yl)-1H-indole-2-carboxamido)benzoic acid] | < 50 nM |
| Cc1cc(OCCCc2c3n(c4c(-c5c(C)nn(C)c5C)c(Cl)ccc24)C(C)[C@@H](C)N(Cc2cccc(C(=O)O)c2)C3=O)cc(C)c1Cl (stereo partly drawn) [I-145, 3-(((3R)-7-chloro-10-(3-(4-chloro-3,5-dimethylphenoxy)propyl)-3,4-dimethyl-1-oxo-6-(1,3,5-trimethyl-1H-pyrazol-4-yl)-3,4-dihydropyrazino[1,2-a]indol-2(1H)-yl)methyl)benzoic acid] | < 50 nM |
| Cc1cc(OCCCc2c(C(=O)NCCS(=O)(=O)NC(=O)C34CC5CC(CC(C5)C3)C4)[nH]c3ccccc23)cc(C)c1Cl [I-55, N-(2-(N-((3r,5r,7r)-adamantane-1-carbonyl)sulfamoyl)ethyl)-3-(3-(4-chloro-3,5-dimethylphenoxy)propyl)-1H-indole-2-carboxamide] | 301 to 500 nM |
| Cc1cc(OCCCc2c3n(c4c(-c5c(C)nn(C)c5C)c(Cl)ccc24)CCCN(c2ccc(C(=O)O)cc2F)C3=O)cc(C)c1Cl [I-95, 4-(8-chloro-11-(3-(4-chloro-3,5-dimethylphenoxy)propyl)-1-oxo-7-(1,3,5-trimethyl-1H-pyrazol-4-yl)-4,5-dihydro-1H-[1,4]diazepino[1,2-a]indol-2(3H)-yl)-3-fluorobenzoic acid] | < 50 nM |
| Cc1cc(OCCCc2c3n(c4c(-c5c(C)nn(C)c5C)cccc24)CCCN(Cc2ccc(N4CCCC4)c(C(=O)O)c2)C3=O)cc(C)c1Cl [I-78, 5-((11-(3-(4-chloro-3,5-dimethylphenoxy)propyl)-1-oxo-7-(1,3,5-trimethyl-1H-pyrazol-4-yl)-4,5-dihydro-1H-[1,4]diazepino[1,2-a]indol-2(3H)-yl)methyl)-2-(pyrrolidin-1-yl)benzoic acid] | 101 to 299 nM |
| Cc1cc(OCCCc2c3n(c4c(-c5c(C)nn(C)c5C)c(Cl)ccc24)CCCNC3=O)cc(C)c1Cl [I-118, 8-chloro-11-(3-(4-chloro-3,5-dimethylphenoxy)propyl)-7-(1,3,5-trimethyl-1H-pyrazol-4-yl)-2,3,4,5-tetrahydro-1H-[1,4]diazepino[1,2-a]indol-1-one] | < 50 nM |
| Cc1cc(OCCCc2c3n(c4c(-c5c(C)nn(C)c5C)c(Cl)ccc24)CCCN(CCc2ccccc2C(=O)O)C3=O)cc(C)c1Cl [I-294, 2-(2-(8-chloro-11-(3-(4-chloro-3,5-dimethylphenoxy)propyl)-1-oxo-7-(1,3,5-trimethyl-1H-pyrazol-4-yl)-4,5-dihydro-1H-[1,4]diazepino[1,2-a]indol-2(3H)-yl)ethyl)benzoic acid] | < 50 nM |
| Cc1cc(OCCCc2c(C(=O)NCCC(=O)NS(=O)(=O)c3ccc(Oc4ccccc4)cc3)[nH]c3ccccc23)cc(C)c1Cl [I-17, 3-(3-(4-chloro-3,5-dimethylphenoxy)propyl)-N-(3-oxo-3-((4-phenoxyphenyl)sulfonamido)propyl)-1H-indole-2-carboxamide] | 101 to 299 nM |
| Cc1cc(OCCCc2c3n(c4c(-c5c(C)nn(C)c5C)c(Cl)ccc24)C(C)[C@@H](C)N(Cc2ccc(C(=O)O)cc2)C3=O)cc(C)c1Cl (stereo partly drawn) [I-144, 4-(((3R)-7-chloro-10-(3-(4-chloro-3,5-dimethylphenoxy)propyl)-3,4-dimethyl-1-oxo-6-(1,3,5-trimethyl-1H-pyrazol-4-yl)-3,4-dihydropyrazino[1,2-a]indol-2(1H)-yl)methyl)benzoic acid] | < 50 nM |

same assay, conditions: Table 2; Ki bins given in μM; FITC-Bak or FITC-Bim peptide competition; Ki converted from IC50; read-out: Ki for Inhibition of Mcl-1

| SMILES | Ki |
| --- | --- |
| CCOC(=O)c1ccc(N2CCN(C(=O)c3[nH]c4cc(Cl)ccc4c3CCCOc3cc(C)c(Cl)c(C)c3)CC2)cc1 [I-50, ethyl 4-(4-(6-chloro-3-(3-(4-chloro-3,5-dimethylphenoxy)propyl)-1H-indole-2-carbonyl)piperazin-1-yl)benzoate] | 10000 to 50000 nM |
| CCOC(=O)CCNC(=O)c1[nH]c2ccccc2c1CCCOc1cc(C)c(Cl)c(C)c1 [I-10, ethyl 3-(3-(3-(4-chloro-3,5-dimethylphenoxy)propyl)-1H-indole-2-carboxamido)propanoate] | 10000 to 50000 nM |
